Entries after “also recorded” stand apart in the source; their conditions may differ. Where a SMILES comes first, the peptide text is derived from it.
Columns and labels:
[1] = tested on: hypoxic primary rat fibroblasts; assay: Alamar Blue viability / proliferation assay under hypoxia; format: cell-based; conditions: for cell proliferation vs untreated controls: various concentrations
Procedure: In order to mimic the hypoxic micro-environment, primary rat fibroblasts were exposed to hypoxia. Cells were exposed to 2 separate conditions—continuous and episodic hypoxia. For continuous hypoxia, cells were incubated in a hypoxic chamber (2% 02) for 48 h and treated with or without L-alanyl-L-glutamine and no restoration to normoxia as shown in FIG. 1C. Cells were collected and processed for experiments subsequently. For episodic hypoxia, cells were incubated in a hypoxic chamber (2% 02) for 2 h followed by restoration to normoxia for 48 h at which time cells were treated with or without L-alanyl-L-glutamine, as shown by FIG. 1C. Cells were collected after 48 h and processed for experiments subsequently. Proliferation of primary fibroblasts were determined by alamar blue assay (Invitrogen). Briefly, cells were plated in a 96-well plate treated with or without L-alanyl-L-glutamine under aforementioned hypoxic conditions for 48 h. The interaction of alamar blue with the cells was analyzed for 4 h by measuring fluorescence readings at 540 nm and 585 nm respectively. Proliferation was also detected using flow cytometry based EdU assay using EdU-Click 488 (baseclick).

[2] = tested on: hypoxic primary rat fibroblasts; assay: Western blotting of whole cell lysates for HIF1-α signaling and pro-fibrotic proteins; format: cell-based
Procedure: In order to mimic the hypoxic micro-environment, primary rat fibroblasts were exposed to hypoxia. Cells were exposed to 2 separate conditions—continuous and episodic hypoxia. For continuous hypoxia, cells were incubated in a hypoxic chamber (2% 02) for 48 h and treated with or without L-alanyl-L-glutamine and no restoration to normoxia as shown in FIG. 1C. Cells were collected and processed for experiments subsequently. For episodic hypoxia, cells were incubated in a hypoxic chamber (2% 02) for 2 h followed by restoration to normoxia for 48 h at which time cells were treated with or without L-alanyl-L-glutamine, as shown by FIG. 1C. Cells were collected after 48 h and processed for experiments subsequently. Protein samples were prepared by resuspending cells growing in 6-well plates in RIPA lysis and extraction buffer (Thermo) containing protease and phosphatase inhibitors (Roche). Protein concentrations were quantified using protein assay dye reagent (Bio-Rad). Samples were mixed with 4× LDS Sample buffer (Thermo) and denatured by boiling at 95° C. for 6 minutes. Following protein concentration estimations, equal protein samples containing 25 μg total protein were loaded and resolved in 4-15% Mini protean TGX gels (Bio-Rad). Fractionated proteins were transferred to 0.2 μm nitrocellulose membranes using Trans-Blot® Turbo™ Transfer System (Bio-Rad). Membranes were blocked with 5% Non-Fat dry milk and incubated overnight with primary antibodies. The following primary antibodies along with their respective concentrations were used during overnight incubation. Anti-collagen I (1:500; ab34710) and anti-collagen IV (1:500; ab6586) were purchased from Abcam. Anti-heat shock protein 47 (HSP-47) (1:400; sc-13150) and anti-fibronectin (1:500; sc-8422) were ordered from Santa Cruz Biotechnology. Other antibodies including anti-SMAD 2/3 (1:500; 85865S), anti-GAPDH (1:5000; 97166S) and anti-HIF-1α (1:750; 14179S) were from Cell Signaling Technology. Horseradish peroxidase-conjugated secondary antibodies at a concentration of 1:5000 were used for immunoreactivity and detection of protein bands were does using Pierce™ ECL Plus Western Blotting Substrate (Thermo) and on the ChemiDoc Imaging Systems (Bio-Rad).

[3] = tested on: hypoxic primary rat fibroblasts; assay: Immunofluorescence of HIF1-α signaling and pro-fibrotic proteins; format: cell-based
Procedure: (§1) In order to mimic the hypoxic micro-environment, primary rat fibroblasts were exposed to hypoxia. Cells were exposed to 2 separate conditions—continuous and episodic hypoxia. For continuous hypoxia, cells were incubated in a hypoxic chamber (2% 02) for 48 h and treated with or without L-alanyl-L-glutamine and no restoration to normoxia as shown in FIG. 1C. Cells were collected and processed for experiments subsequently.
For episodic hypoxia, cells were incubated in a hypoxic chamber (2% 02) for 2 h followed by restoration to normoxia for 48 h at which time cells were treated with or without L-alanyl-L-glutamine, as shown by FIG. 1C. Cells were collected after 48 h and processed for experiments subsequently.
For immunofluorescence microscopy, cells were grown on 4-well chamber slides (IBIDI) under appropriate hypoxic conditions with or without L-alanyl-L-glutamine treatment. Cells were washed with ice-cold PBS followed by fixation with 4% paraformaldehyde. Fixed cells were permeabilized with 0.5% Triton X-100 and incubated with blocking reagent (1% BSA in PBS) for 30 minutes, prior to overnight incubation with appropriate primary antibodies. After wash steps, cultures were labeled and incubated with secondary antibodies and 4′-6-didiamino-2-phenylindole, dihydrochloride (DAPI, Sigma) were used to stain the nuclei.
Fluorescence microscopy image analysis was performed using NIKON Ti2 inverted microscope equipped with Photometrics Prime 95B camera for fluorescence imaging. All images were digitally processed, all quantifications and further arrangement for presentation was done using NIS-Elements Advanced Research analysis software. For quantification analysis, pictures from random fields in independent wells were taken at 10× and 40× magnification objectives and the total protein expression for each marker was determined in reference to the total number of cells based on DAPI quantification.
For immunofluorescence, the primary antibodies along with their respective concentrations are listed below. Anti-collagen I (1:500; ab34710), anti-collagen IV (1:500; ab6586) and anti-α-SMA (1:500; ab124964) were purchased from Abcam. Anti-HSP-47 (1:250; sc-13150), anti-fibronectin (1:250; sc-8422), and anti-HIF-1α (1:500; sc-13515) were ordered from Santa Cruz Biotechnology. Anti-SMAD 2/3 (1:500; 85865S) was purchased from Cell Signaling Technology. In addition to this, the following secondary antibodies: Goat anti-mouse Alexa Fluor (AF) 488 (A11029), goat anti-mouse AF546 (A11030), goat anti-rabbit AF488 (A11034) and goat anti-rabbit AF546 (A11010) from Life Technologies. DAPI (D9564) from Sigma was used at a concentration of 1:1000.

[4] = tested on: hypoxic primary rat fibroblasts; assay: Phosphoproteomics (LC-MS/MS) and pathway analysis under chronic hypoxia; format: cell-based; conditions: vs untreated chronic hypoxic samples
Procedure: as §1
Following fibroblast isolation from sciatic nerves of rats, (8E10 primary fibroblasts) were lysed in 80 ul of 8M Urea, 0.1M ammonium bicarbonate, phosphatase inhibitors (Sigma P5726&P0044) by sonication (Bioruptor, 10 cycles, 30 seconds on/off, Diagenode, Belgium) and proteins were digested as described previously (PMID:27345528). Shortly, proteins were reduced with 5 mM TCEP for 60 min at 37° C. and alkylated with 10 mM chloroacetamide for 30 min at 37° C. After diluting samples with 100 mM ammonium bicarbonate buffer to a final urea concentration of 1.6M, proteins were digested by incubation with sequencing-grade modified trypsin (1/50, w/w; Promega, Madison, Wisconsin) for 12 h at 37° C. After acidification using 5% TFA, peptides were desalted using C18 reverse-phase spin columns (Macrospin, Harvard Apparatus) according to the manufacturer's instructions, dried under vacuum and stored at −20° C. until further use. […]

[5] = room temperature; cited from earlier work
[6] = continuous hypoxia 48 h, 1 mM, 10 mM and 100 mM, dose-dependent
[7] = continuous hypoxia 48 h, various concentrations
[8] = episodic hypoxia 2 h, then treatment 48 h

SMILES: C[C@H](N)C(=O)N[C@@H](CCC(N)=O)C(=O)O [L-alanyl-L-glutamine] (H-Ala-Gln-OH)
- viability and cell proliferation ([1]; Alamar Blue, 48 h, hypoxic, 1 mM, 10 mM and 100 mM): does not affect the viability and cell proliferation
- cell proliferation vs untreated controls ([1]; continuous (48 h) hypoxia): no change in cell proliferation
- cell proliferation vs untreated controls ([1]; episodic (2 h) hypoxia): no change in cell proliferation
- HSP47 expression (western blot) ([2]; continuous hypoxia 48 h): reduces expression of HSP47 but we did not observe a significant downregulation
- HIF1-α expression (western blot) ([2]; continuous hypoxia 48 h, 1 mM, 10 mM and 100 mM): significantly down regulated
- Collagen-I expression (western blot) [2, 6]: significantly reduced
- Collagen-IV expression (western blot) [2, 6]: significantly reduced
- Fibronectin expression (western blot) [2, 6]: significantly reduced
- SMAD 2/3 expression (western blot) ([2]; continuous hypoxia 48 h, 100 mM only): significantly downregulated
- COL-IV expression (western blot) ([2]; episodic hypoxia, 1 mM): significant downregulation
- HIF1-α signaling factors and pro-fibrosis mechanistic targets (western blot) ([2]; episodic hypoxia, across the various concentrations): not any significant downregulation
- Collagen-I expression (immunofluorescence) [3, 7]: significantly reduced in a non-dose dependent manner
- Collagen-IV expression (immunofluorescence) [3, 7]: dose-dependent downregulation
- Fibronectin expression (immunofluorescence) [3, 7]: significantly reduced in a non-dose dependent manner
- HIF1-α expression (immunofluorescence) [3, 7]: significant reduction; also recorded: dose-dependent downregulation
- HSP47 expression (immunofluorescence) [3, 7]: dose-dependent downregulation
- SMAD 2/3 expression (immunofluorescence) [3, 7]: significant reduction; also recorded: dose-dependent downregulation
- Collagen-I expression (immunofluorescence) [3, 8]: significantly reduced at 1 mM L-alanyl-L-glutamine, but remained constant thereafter
- Collagen-IV expression (immunofluorescence) [3, 8]: effectively reduces expression
- Fibronectin expression (immunofluorescence) [3, 8]: effectively reduces expression
- HIF1-α expression (immunofluorescence) [3, 8]: significant downregulation
- HSP47 expression (immunofluorescence) [3, 8]: effectively reduces expression
- SMAD 2/3 expression (immunofluorescence) [3, 8]: significant downregulation
- pro-fibrotic factors Fndel, Fndc3b, Col1a1, Akt1s1 and Pxn (phosphoproteome) [4]: significantly downregulated

SMILES: NC(=O)CC[C@H](N)C(=O)O [L-glutamine]
- water solubility [5]: about 40 g/L
